Results as given in patent US12589092B2, “Polycyclic compound acting as kinase inhibitor” (HANGZHOU INNOGATE PHARMA CO., LTD., priority 2020, dated 2026).
Like-named read-outs stand apart in the source and are kept apart here.

How the values were obtained:
[1] = molecular target: CDK6/cycD3 (Homo sapiens, UniProt Q00534); experiment: CDK6 kinase activity inhibition assay (caliper mobility shift); assay type: biochemical; conditions: CDK6/cycD3 15 nM, ATP 800 μM; read-out: CDK6 kinase inhibitory activity (IC50)
Sequence of CDK6/cycD3 (Q00534 whole entry): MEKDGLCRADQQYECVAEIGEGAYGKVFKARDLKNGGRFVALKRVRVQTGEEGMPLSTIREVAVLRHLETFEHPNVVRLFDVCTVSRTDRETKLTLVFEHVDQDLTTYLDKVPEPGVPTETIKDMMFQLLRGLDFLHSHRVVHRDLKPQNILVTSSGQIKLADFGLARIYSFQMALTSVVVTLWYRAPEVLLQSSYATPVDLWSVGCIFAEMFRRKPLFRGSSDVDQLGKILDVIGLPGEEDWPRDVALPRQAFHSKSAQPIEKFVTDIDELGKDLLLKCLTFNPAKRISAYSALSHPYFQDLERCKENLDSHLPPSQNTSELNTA
Sequence of CDK6/cycD3 (P30281 whole entry partner): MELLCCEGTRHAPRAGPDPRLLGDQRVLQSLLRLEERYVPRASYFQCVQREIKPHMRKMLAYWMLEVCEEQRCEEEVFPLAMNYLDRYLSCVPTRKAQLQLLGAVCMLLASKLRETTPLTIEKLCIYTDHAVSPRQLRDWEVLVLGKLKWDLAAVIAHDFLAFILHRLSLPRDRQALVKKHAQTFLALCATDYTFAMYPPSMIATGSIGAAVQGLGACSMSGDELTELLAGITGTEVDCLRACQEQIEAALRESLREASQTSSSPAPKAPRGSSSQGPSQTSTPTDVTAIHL
Protocol: (§1) 1) CDK2, CDK4 and CDK6 Kinase Activity Inhibition Assay
(§2) In vitro enzymatic activity of the CDK isoforms CDK2/CycA2, CDK4/CycD3 and CDK6/cycD3 were measured using caliper mobility shift assay. Dissolve the compounds in DMSO and dilute them with corresponding kinase buffer (CDK2/CycA2 and CDK6/CycD3 were assayed with buffer conditions of 50 mM HEPES (pH 7.5), 10 mM MgCl2, 0.0015% Brij-35 and 2 mM dithiothreitol; CDK4/CycD3 was assayed with buffer condition of 20 mM HEPES (pH 7.5), 10 mM MgCl2, 0.01% Triton X-100 and 2 mM dithiothreitol). Add 5 μl of compound (10% DMSO) with 5 times the final concentration of the reaction to a 384-well plate. […] Collect conversion data on Caliper EZ Reader II (Caliper Life Sciences). Convert the conversion rate into inhibition rate data (% inhibition rate=(max−conversion rate)/(max−min)*100). […] Draw a curve with the concentration and inhibition rate of the compound as abscissa and ordinate, and use XLFit excel add-in version 4.3.1 software to fit the curve and calculate IC50.

[2] = molecular target: CDK9/CycT1 (Homo sapiens, UniProt P50750); experiment: CDK9 kinase activity inhibition assay (ADP-Glo); assay type: biochemical; conditions: read-out: CDK9 kinase inhibitory activity (IC50)
Sequence of CDK9/CycT1 (P50750 whole entry): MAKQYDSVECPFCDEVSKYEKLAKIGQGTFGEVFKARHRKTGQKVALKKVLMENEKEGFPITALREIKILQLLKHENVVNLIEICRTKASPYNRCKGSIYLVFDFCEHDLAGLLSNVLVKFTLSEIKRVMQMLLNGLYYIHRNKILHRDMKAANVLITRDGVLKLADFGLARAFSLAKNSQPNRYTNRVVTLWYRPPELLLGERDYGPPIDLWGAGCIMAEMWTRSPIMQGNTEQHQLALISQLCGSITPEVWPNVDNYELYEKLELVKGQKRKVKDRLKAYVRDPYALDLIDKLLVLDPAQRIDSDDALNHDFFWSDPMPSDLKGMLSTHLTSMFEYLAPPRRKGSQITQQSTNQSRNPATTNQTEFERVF
Sequence of CDK9/CycT1 (O60563 whole entry partner): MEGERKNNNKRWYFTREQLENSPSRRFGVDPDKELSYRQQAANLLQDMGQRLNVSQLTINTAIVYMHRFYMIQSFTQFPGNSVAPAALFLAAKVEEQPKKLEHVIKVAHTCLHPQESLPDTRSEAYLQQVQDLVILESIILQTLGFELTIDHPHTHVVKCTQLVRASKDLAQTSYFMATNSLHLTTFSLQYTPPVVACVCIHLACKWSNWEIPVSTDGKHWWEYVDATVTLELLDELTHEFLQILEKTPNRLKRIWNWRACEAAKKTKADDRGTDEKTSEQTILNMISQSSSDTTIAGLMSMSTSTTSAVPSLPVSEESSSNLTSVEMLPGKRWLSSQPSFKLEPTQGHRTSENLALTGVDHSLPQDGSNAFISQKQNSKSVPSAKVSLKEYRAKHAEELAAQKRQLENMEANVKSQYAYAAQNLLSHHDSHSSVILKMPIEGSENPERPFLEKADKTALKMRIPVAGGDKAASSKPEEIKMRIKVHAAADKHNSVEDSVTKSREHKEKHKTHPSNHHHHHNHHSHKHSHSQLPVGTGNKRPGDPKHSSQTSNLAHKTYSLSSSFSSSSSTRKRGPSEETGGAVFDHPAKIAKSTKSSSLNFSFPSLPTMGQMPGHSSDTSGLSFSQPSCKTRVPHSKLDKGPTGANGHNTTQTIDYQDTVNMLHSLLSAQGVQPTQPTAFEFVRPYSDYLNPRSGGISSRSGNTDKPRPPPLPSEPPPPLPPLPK
Protocol: (§3) 3) CDK5, CDK9 and CDK16 Kinase Activity Inhibition Assay
(§4) CDK5/p35NCK, CDK9/CycT1 and CDK16/CycY protein kinase activities were determined using the ADP-Glo Kinase Assay. Dilute the positive compound and the test compound (10 mM stock solution) 25-fold with 100% DMSO, make a 4-fold serial dilution in a 96-well dilution plate, and add 1 μL of the compound to 49 μL of kinase reaction buffer (1 mM Tris, 20 mM MgCl2, 0.10% BSA and 0.5 mM DTT) on a microplate shaker for 20 min. Transfer 2 μL of 2× kinase to the 384-well reaction plate, add 1 μL of the test compound to the 384-well reaction plate, centrifuge at 1000 rpm/min for 1 min, and incubate at 25° C. for 10 min. Transfer 1 μL of the 4× substrate mix to the 384-well reaction plate, centrifuge at 1000 rpm/min for 1 min, and incubate at 25° C. for 60 min. Transfer 4 μL of ADP-Glo to the 384-well reaction plate to centrifuge at 1000 rpm/min for 1 min, and incubate at 25° C. for 40 min. Transfer 8 μL of detection solution to the 384-well reaction plate to centrifuge at 1000 rpm/min for 1 min, and incubate at 25° C. for 40 min. The RLU (Relative luminescence unit) signal was read using a Biotek multifunctional plate reader. Signal intensity is used to characterize the degree of kinase activity. Compound inhibition rate data: % inhibition rate=[1−(compound mean RLU−positive control mean RLU)/(negative control mean RLU−positive control mean RLU)]*100. Taking the log value of the concentration as the X axis and the percentage inhibition rate as the Y axis, the log(inhibitor) vs. response-Variable slope of the analysis software GraphPad Prism 5 was used to fit the dose-response curve to obtain the IC50 value of each compound on the enzyme activity.

[3] = in vivo; conditions: male, SD, rat, po, 3 mg/kg
Protocol: (§5) Instruments: XEVO TQ-S LC/MS instrument produced by Waters. All measurement data is collected and processed by Masslynx V4.1 software, and the data is calculated and processed by Microsoft Excel. Using WinNonLin 8.0 software, the statistical moment method was used to calculate the pharmacokinetic parameters. Mainly include kinetic parameters Tmax, T1/2, Cmax, AUClast etc. Column: ACQUITY UPLC BEH C18 (2.1 mm×50 mm, 1.7 μm); column temperature 40° C.; mobile phase A is water (0.1% formic acid), mobile phase B is acetonitrile, flow rate is 0.350 ml/min, gradient elution is adopted, the elution gradient is 0.50 min: 10% B; 1.50 min: 10% B; 2.30 min: 95% B; 2.31 min: 10% B; 3.00 min: stop. Injection volume: 5 μL.
(§6) Animals: 3 male SD rats with a weight range of 200-220 g. After purchase, they will be kept in the laboratory of the Experimental Animal Center for 2 days and then used. They will be fasted for 12 hours predose and 4 hours after dosing. Drinking water is free during the test. After the rats were gavage, blood samples were taken according to the established time point.
(§7) Solvent: 0.5% Methylcellulose (aqueous solution containing 0.4% Tween 80 and 1% ethanol). Preparation of the solution for intragastrical administration: accurately weigh the compound, add it to the solvent, and use ultrasound at room temperature for 5 minutes to completely dissolve the drug, and prepare a 0.3 mg/ml medicinal solution.
(§8) A single administration was also used to study the pharmacokinetics of the drug sample in rats.
(§9) After intragastrical administration, blood was taken from the orbit at 0.25, 0.5, 1, 2, 4, 9, 12 and 24 hours, and placed in a plastic centrifuge tube pretreated with sodium heparin. After centrifugation, the supernatant plasma was used for LC-MS/MS analysis.
(§10) Accurately weigh the compounds to prepare different concentrations, perform quantitative analysis on mass spectrometry to establish a standard curve, and then test the concentration of the above-mentioned compound in the plasma to obtain the compound concentration at different time points. All measurement data are collected and processed by relevant software, and the statistical moment method is used to calculate the pharmacokinetic parameters (mainly including kinetic parameters Tmax, T1/2, Cmax, AUClast etc).

[4] = molecular target: CDK5/p35NCK (Homo sapiens, UniProt Q00535); experiment: CDK5 kinase activity inhibition assay (ADP-Glo); assay type: biochemical; conditions: read-out: CDK5 kinase inhibitory activity (IC50)
Sequence of CDK5/p35NCK (Q00535 whole entry): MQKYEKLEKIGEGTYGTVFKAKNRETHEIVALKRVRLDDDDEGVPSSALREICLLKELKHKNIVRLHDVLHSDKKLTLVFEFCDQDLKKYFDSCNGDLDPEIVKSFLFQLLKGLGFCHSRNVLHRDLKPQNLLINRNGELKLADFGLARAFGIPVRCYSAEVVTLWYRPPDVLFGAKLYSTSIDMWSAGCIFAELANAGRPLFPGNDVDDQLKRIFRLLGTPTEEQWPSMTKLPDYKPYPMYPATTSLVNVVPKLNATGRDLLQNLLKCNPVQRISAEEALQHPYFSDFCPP
Sequence of CDK5/p35NCK (Q15078 whole entry partner): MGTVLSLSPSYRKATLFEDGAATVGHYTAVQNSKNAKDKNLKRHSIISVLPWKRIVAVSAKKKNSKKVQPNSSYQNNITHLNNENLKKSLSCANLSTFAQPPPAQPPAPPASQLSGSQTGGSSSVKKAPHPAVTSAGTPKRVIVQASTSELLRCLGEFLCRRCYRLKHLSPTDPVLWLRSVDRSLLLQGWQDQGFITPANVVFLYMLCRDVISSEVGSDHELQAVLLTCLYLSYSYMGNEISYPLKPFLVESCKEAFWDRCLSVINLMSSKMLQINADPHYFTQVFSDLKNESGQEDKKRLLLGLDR
Protocol: as §3, §4

[5] = molecular target: CDK2/CycA2 (Homo sapiens, UniProt P24941); experiment: CDK2 kinase activity inhibition assay (caliper mobility shift); assay type: biochemical; conditions: CDK2/CycA2 12 nM, ATP 39 μM; read-out: CDK2 kinase inhibitory activity (IC50)
Protocol: as §1, §2

[6] = molecular target: TRKA (Homo sapiens, UniProt P04629); experiment: TRKA kinase activity inhibition assay (caliper mobility shift); assay type: biochemical
Sequence of TRKA (P04629 33-796): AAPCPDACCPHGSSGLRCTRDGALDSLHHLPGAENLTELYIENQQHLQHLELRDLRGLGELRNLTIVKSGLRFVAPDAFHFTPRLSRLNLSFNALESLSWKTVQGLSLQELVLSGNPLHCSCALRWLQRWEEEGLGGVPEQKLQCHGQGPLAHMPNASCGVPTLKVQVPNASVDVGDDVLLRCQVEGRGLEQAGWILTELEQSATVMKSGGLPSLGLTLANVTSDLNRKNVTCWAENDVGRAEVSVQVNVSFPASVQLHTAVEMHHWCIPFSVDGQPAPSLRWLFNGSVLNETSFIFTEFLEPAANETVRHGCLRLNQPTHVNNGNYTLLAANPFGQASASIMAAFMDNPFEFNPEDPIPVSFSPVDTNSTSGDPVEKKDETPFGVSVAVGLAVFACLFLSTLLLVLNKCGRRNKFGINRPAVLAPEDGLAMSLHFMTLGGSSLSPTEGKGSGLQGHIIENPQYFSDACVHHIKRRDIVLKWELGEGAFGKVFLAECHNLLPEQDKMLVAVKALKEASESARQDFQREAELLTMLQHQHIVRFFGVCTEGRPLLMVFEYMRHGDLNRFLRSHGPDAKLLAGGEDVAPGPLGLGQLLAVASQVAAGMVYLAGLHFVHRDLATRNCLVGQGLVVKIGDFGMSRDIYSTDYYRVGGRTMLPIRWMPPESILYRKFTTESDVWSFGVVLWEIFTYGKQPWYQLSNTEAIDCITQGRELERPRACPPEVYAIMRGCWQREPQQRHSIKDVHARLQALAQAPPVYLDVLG
Protocol: 2) TRKA Kinase Activity Inhibition Assay
TRKA protein kinase activity was measured by caliper mobility shift assay. Compounds were dissolved in DMSO to make up 10 mM stock solutions. Prepare 1× kinase reaction buffer to serially dilute compounds. 250 nL 100× final concentration of the test compounds were transferred to destination plate 3573 by dispenser Echo 550. Prepare a 2.5× final concentration of kinase solution with 1× kinase buffer. Add 10 μL of 2.5× final kinase solution to compound wells and positive control wells; add 10 μL of 1× kinase buffer to negative control wells. Centrifuge at 1000 rpm for 30 s, shake and mix the reaction plate and incubate at room temperature for 10 min. Prepare a mixture of ATP and kinase substrate solution at 5/3× final concentration with 1× kinase buffer. The reaction was initiated by adding 15 μL of the mixed solution. Centrifuge the 384-well plate at 1000 rpm for 30 s, shake and mix well, and incubate at room temperature for the corresponding time. Add 30 μL of stop solution to stop the kinase reaction, centrifuge at 1000 rpm for 30 s, mix by shaking, and read the conversion rate data with Caliper EZ Reader. Convert conversion to inhibition data (% inhibition=(max DMSO well conversion−sample well conversion)/(max DMSO well conversion−min negative control conversion)*100). Wherein max refers to the conversion rate of the DMSO control, and min refers to the conversion rate of the non-enzymatic control. Draw a curve with the concentration and inhibition rate of the compound as abscissa and ordinate, and use XLFit excel add-in version 4.3.1 software to fit the curve and calculate IC50.

[7] = Pharmacokinetic study in rats (intragastrical administration, plasma LC-MS/MS); conditions: male, SD, rat, po, 3 mg/kg
Protocol: as §5, §6, §7, §8, §9, §10

[8] = molecular target: CDK16/CycY (Homo sapiens, UniProt Q00536); experiment: CDK16 kinase activity inhibition assay (ADP-Glo); assay type: biochemical; conditions: read-out: CDK16 kinase inhibitory activity (IC50)
Sequence of CDK16/CycY (Q00536 whole entry): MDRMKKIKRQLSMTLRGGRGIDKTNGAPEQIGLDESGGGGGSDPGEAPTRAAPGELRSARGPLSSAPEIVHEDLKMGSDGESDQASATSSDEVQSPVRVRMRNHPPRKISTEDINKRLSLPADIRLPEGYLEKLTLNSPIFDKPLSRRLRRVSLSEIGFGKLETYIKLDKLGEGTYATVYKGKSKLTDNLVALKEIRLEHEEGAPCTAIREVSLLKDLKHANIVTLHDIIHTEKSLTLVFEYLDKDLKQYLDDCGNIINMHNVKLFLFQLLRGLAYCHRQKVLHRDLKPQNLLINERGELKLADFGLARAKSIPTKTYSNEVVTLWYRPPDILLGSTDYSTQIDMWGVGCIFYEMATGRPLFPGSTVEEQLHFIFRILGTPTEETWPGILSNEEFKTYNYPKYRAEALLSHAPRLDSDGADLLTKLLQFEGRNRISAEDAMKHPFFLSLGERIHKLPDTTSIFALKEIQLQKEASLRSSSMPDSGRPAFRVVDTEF
Sequence of CDK16/CycY (Q8ND76 whole entry partner): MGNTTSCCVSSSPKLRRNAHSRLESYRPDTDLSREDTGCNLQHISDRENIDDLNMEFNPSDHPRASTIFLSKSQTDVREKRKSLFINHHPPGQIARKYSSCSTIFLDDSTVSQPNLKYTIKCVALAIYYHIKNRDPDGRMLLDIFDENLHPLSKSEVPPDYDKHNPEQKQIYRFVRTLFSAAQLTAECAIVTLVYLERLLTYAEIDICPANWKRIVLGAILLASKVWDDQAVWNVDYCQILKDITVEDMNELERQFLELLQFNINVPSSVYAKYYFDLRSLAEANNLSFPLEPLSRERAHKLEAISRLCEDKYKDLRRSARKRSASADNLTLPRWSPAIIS
Protocol: as §3, §4

[9] = molecular target: CDK4/CycD3 (Homo sapiens, UniProt P11802); experiment: CDK4 kinase activity inhibition assay (caliper mobility shift); assay type: biochemical; conditions: CDK4/CycD3 10 nM, ATP 221 μM; read-out: CDK4 kinase inhibitory activity (IC50)
Sequence of CDK4/CycD3 (P11802 whole entry): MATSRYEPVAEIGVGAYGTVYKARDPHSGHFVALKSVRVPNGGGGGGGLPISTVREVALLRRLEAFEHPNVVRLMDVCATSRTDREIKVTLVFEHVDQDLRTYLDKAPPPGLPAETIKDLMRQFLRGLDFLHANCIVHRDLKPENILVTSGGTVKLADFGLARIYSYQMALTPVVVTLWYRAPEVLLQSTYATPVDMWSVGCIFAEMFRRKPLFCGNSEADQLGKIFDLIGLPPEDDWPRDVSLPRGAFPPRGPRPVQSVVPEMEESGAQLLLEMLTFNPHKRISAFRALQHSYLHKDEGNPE
Sequence of CDK4/CycD3 (P30281 whole entry partner): as the sequence (P30281 whole entry partner) above
Protocol: as §1, §2

[10] = read-out: TRKA kinase inhibitory activity (IC50)

Structure (SMILES) | IC50 [1] [nM] | IC50 [2] [nM] | AUC(0-t) [3] [ng·h/mL] | Cmax [3] [ng/mL] | Tmax [3] [h] | IC50 [4] [nM] | IC50 [5] [nM] | IC50 [6] [nM] | half-life [7] [h] | IC50 [8] [nM] | IC50 [9] [nM] | IC50 [6, 10] [nM] | AUC(0-t) [7] [ng·h/mL] | Cmax [7] [ng/mL] | Tmax [7] [h]
CC(=O)c1c(C)c2cnc(Nc3ccc4c(c3)OC[C@@H]3CN(C5CCN(C)CC5)CCN43)nc2n(C2CCCC2)c1=O [Compound 2S] | < 10 | < 20 | 1910 | 114 | 13.3 | < 50 | < 100 | < 10 | > 12 | < 100 | < 10 |  |  |  | 
CC(=O)c1c(C)c2cnc(Nc3ccc4c(c3)OC[C@H]3CN(C5CCN(C(C)=O)CC5)CCN43)nc2n(C2CCCC2)c1=O [Compound 5R] | < 20 | < 50 |  |  |  | < 200 | < 100 |  | 2.91 | < 200 | < 10 | < 10 | 4350 | 438 | 6.67
CC(=O)c1c(C)c2cnc(Nc3ccc4c(c3)OC[C@@H]3CN(C5CN(C)C5)CCN43)nc2n(C2CCCC2)c1=O [Compound 7S] | < 10 | < 50 |  |  |  | < 100 | < 100 |  | 3.19 | < 100 | < 10 | < 10 | 1940 | 133 | 9.33
